Experimental data from patent US5239082A, “Sulfonamide tetrazole ACAT inhibitors” (Warner-Lambert Company, priority 1992, dated 1993).

Assays:
[1] = biological target: T1, acyl-CoA: cholesterol acyltransferase (ACAT) (Oryctolagus cuniculus, UniProt G1SFD9); assay: in vitro ACAT inhibition test (IAI), radiolabeled cholesterol oleate formed from radiolabeled oleic acid in rabbit intestinal microsomes; format: biochemical; details: inhibition of acylation of cholesterol by oleic acid
T1 construct: tissue preparation containing rabbit intestinal microsomes; from tissue; host or cells: rabbit intestinal microsomes
T1 sequence (G1SFD9 1-524): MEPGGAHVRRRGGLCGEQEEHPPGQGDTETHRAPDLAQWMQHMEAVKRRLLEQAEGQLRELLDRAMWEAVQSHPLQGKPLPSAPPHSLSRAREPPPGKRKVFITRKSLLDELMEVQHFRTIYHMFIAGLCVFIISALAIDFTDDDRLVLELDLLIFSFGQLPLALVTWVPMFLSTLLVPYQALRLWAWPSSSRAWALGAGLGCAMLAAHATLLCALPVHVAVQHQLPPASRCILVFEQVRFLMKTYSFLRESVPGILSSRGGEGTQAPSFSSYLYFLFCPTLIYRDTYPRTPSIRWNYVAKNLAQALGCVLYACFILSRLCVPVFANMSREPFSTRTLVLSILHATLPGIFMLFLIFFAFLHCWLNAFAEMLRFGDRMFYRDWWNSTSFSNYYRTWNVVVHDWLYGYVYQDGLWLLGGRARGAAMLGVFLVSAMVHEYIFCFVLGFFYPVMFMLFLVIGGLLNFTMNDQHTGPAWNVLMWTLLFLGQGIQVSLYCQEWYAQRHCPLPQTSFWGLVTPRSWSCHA
Description: The ability of representative compounds of the present invention to inhibit ACAT was measured using an in vitro test more fully described in Field FJ, Salone RG. Biochemica et Biophysica 1982;712:557-70. The test assesses the ability of a test compound to inhibit the acylation of cholesterol by oleic acid by measuring the amount of radiolabeled cholesterol oleate formed from radiolabeled oleic acid in a tissue preparation containing rabbit intestinal microsomes.
The data appear in Table 1 where they are expressed as IC50 values; i.e., the concentration of test compound required to inhibit the activity of the enzyme by 50%.

[2] = in vivo screen designated APCC, rats on high fat, high cholesterol diet with 0.5% cholic acid, blood cholesterol; parameters: species or system male Sprague-Dawley rats; details: Rattus norvegicus, 16 h, dosed at 4 PM in CMC/Tween, sacrificed at 8 AM, high cholesterol diet overnight, read-out: APCC (% ΔTC)
Excerpt: In one in vivo screen designated APCC, male Sprague-Dawley rats (200 to 225 g) were randomly divided into treatment groups and dosed at 4 PM with either vehicle (CMC/Tween) or suspensions of compounds in vehicle. The normal chow diet was then replaced with a high fat, high cholesterol diet with 0.5% cholic acid. The rats consumed this diet ad libitum during the night and were sacrificed at 8 AM to obtain blood samples for cholesterol analysis using standard procedures. Statistical differences between mean cholesterol values for the same vehicle were determined using analysis of variance followed by Fisher's least significant test. The results of this trial for representative compounds of the present invention also appear in Table 1.

SMILES | IC50 [1] | change in vivo at 30 mg/kg [2]
CCCCCCCCCCCCn1nnc(CS(=O)(=O)Nc2c(OC)cc(OC)cc2OC)n1 [Example 7, N-(2,4,6-trimethoxyphenyl)-2-dodecyl-2H-tetrazole-5-methanesulfonamide] | 180 nM | -60%
CCCCCCCCCCCCCCCCn1nnc(CS(=O)(=O)Nc2c(C(C)C)cccc2C(C)C)n1 [Example 2, N-[2,6-bis(1-methylethyl)phenyl]-2-hexadecyl-2H-tetrazole-5-methanesulfonamide] | 600 nM | -20%
CCCCCCCCn1nnc(CS(=O)(=O)Nc2c(C(C)C)cccc2C(C)C)n1 [Example 4, N-[2,6-bis(1-methylethyl)phenyl]-2-octyl-2H-tetrazole-5-methanesulfonamide] | 750 nM | -14%
CCCCCCCCCCCCCCCCCCn1nnc(CS(=O)(=O)Nc2c(C(C)C)cccc2C(C)C)n1 [Example 5, N-[2,6-bis(1-methylethyl)phenyl]-2-octadecyl-2H-tetrazole-5-methanesulfonamide] | 7600 nM | -31%

Continued by falling IC50 [1], values first:

IC50 [1] | SMILES | change in vivo at 30 mg/kg [2]
3700 nM | CCCCCCCCCCCCn1nnnc1CS(=O)(=O)Nc1c(OC)cc(OC)cc1OC [Example 8, N-(2,4,6-trimethoxyphenyl)-1-dodecyl-1H-tetrazole-5-methanesulfonamide] | -30%
1200 nM | CCCCCCCCCCCCn1nnnc1CS(=O)(=O)Nc1c(C(C)C)cccc1C(C)C [Example 6, N-[2,6-bis(1-methylethyl)phenyl]-1-dodecyl-1H-tetrazole-5-methanesulfonamide] | -41%
222 nM | CCCCCCCCCCCCn1nnc(CS(=O)(=O)Nc2c(C(C)C)cccc2C(C)C)n1 [Example 1, N-[2,6-Bis(1-methylethyl)phenyl]-2-dodecyl-2H-tetrazole-5-methanesulfonamide] | -61%
150 nM | CCCCCCCCCCCCCCn1nnc(CS(=O)(=O)Nc2c(C(C)C)cccc2C(C)C)n1 [Example 3, N-[2,6-bis(1-methylethyl)phenyl]-2-tetradecyl-2H-tetrazole-5-methanesulfonamide] | -42%
40 nM | CCCCCCCCCCCCn1nnc(C(C)(C)S(=O)(=O)Nc2c(C(C)C)cccc2C(C)C)n1 [Example 9, N-[2,6-Bis(1-methylethyl)phenyl]-2-dodecyl-α,α-dimethyl-2H-tetrazole-5-methanesulfonamide] | -53%
